Data taken from US6387397B1, “Polymerized liposomes targeted to M cells and useful for oral or mucosal drug delivery” (Massachusetts Institute of Technology, priority 1997, dated 2002).

Test: In vivo oral insulin delivery; blood glucose level
Parameters: species or system Balb/C mice
Details: mice, single oral dose, 1 to 3.5 hours
Experimental: Balb/C mice of female sex were fasted for 12 hours before experiment. Each mouse wag savaged 200 μL of each preparation as described in Table 9.3. Food was restored immediately after administration. Blood samples for glucose determination was drawn from mouse tail vein under methoxyflurane anesthesia. Samples were drawn right before the administration (0 hour), as well as at 1, 2, 3 and 3.5 hours post administration of each preparation. Blood glucose level was measured using a One Touch® Profile Diabetes Tracking system (Lifescan, Milpitas, Calif.) with One Touch® Test strips, by applying blood to form a round drop which completely covered the test spot on the test strip. Readings (in mg/dL) were obtained from the meter indicating the blood glucose level detected.
Blood glucose level at zero hour was taken at 100 percent. Blood glucose levels after the oral administration were normalized by the level at zero hour, and the results were plotted in FIG. 9. […] This was due to the degradation of the unprotected peptide in the gastrointestinal tract by the digestive enzymes. […] This is consistent with the fact that unpolymerized liposomes are not stable in the gastrointestinal tract, where they are dissolved by the biological detergents. The dissolution results in the exposure of liposomal contents and therefore the loss of liposome protective functions. […]

## insulin in solution: human insulin (regular) administered orally in solution
  change in blood glucose level after oral administration: did not result in any significant change
